Assay results published in PubChem BioAssay (NCI).
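At the GI50, growth is halved. The concentration for full growth arrest is given as TGI.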

How the values were obtained:
Experiment in all cases: DTP human tumour cell line panel, 384-well format
DU-145 prostate = system: DU-145 prostate
HCT-116 colon = system: HCT-116 colon
HCT-15 colon = system: HCT-15 colon
HL-60(TB) leukemia = system: HL-60(TB) leukemia
HS 578T breast = system: HS 578T breast
MCF7 breast = system: MCF7 breast
MOLT-4 leukemia = system: MOLT-4 leukemia
NCI-H522 lung = system: NCI-H522 lung
OVCAR-8 ovarian = system: OVCAR-8 ovarian
SF-539 CNS = system: SF-539 CNS
SK-MEL-28 melanoma = system: SK-MEL-28 melanoma
SK-MEL-5 melanoma = system: SK-MEL-5 melanoma
TK-10 renal = system: TK-10 renal

SMILES: CS(=O)(=O)c1ccc(C(=O)Nc2ccc(Cl)c(-c3ccccn3)c2)c(Cl)c1
- GI50 (DU-145 prostate): 42.5 µM
- TGI (DU-145 prostate): > 86.8 µM
- GI50 (HCT-116 colon): 58.3 µM
- TGI (HCT-116 colon): > 100 µM
- GI50 (HCT-15 colon): 26.2 µM
- TGI (HCT-15 colon): > 70.8 µM
- GI50 (HL-60(TB) leukemia): 19.6 µM
- TGI (HL-60(TB) leukemia): 49.1 µM
- GI50 (HS 578T breast): 27.6 µM
- TGI (HS 578T breast): > 84 µM
- GI50 (MCF7 breast): 35.3 µM
- TGI (MCF7 breast): > 82.8 µM
- GI50 (MOLT-4 leukemia): 21.8 µM
- TGI (MOLT-4 leukemia): 46.3 µM
- GI50 (NCI-H522 lung): 46 µM
- TGI (NCI-H522 lung): > 100 µM
- GI50 (OVCAR-8 ovarian): 45.7 µM
- TGI (OVCAR-8 ovarian): 99.4 µM
- GI50 (SF-539 CNS): 49.1 µM
- TGI (SF-539 CNS): > 100 µM
- GI50 (SK-MEL-28 melanoma): > 53.4 µM
- TGI (SK-MEL-28 melanoma): > 100 µM
- GI50 (SK-MEL-5 melanoma): 10.8 µM
- TGI (SK-MEL-5 melanoma): > 29.3 µM
- GI50 (TK-10 renal): > 52.9 µM
- TGI (TK-10 renal): > 100 µM
